Test results as given in patent US20150353495A1 (PORTOLA PHARMACEUTICALS, INC., priority 2010, published 2015).

Assays:
Format in all cases: biochemical
JAK1 = target: T1, JAK1 (Homo sapiens, UniProt P23458); test: Z'-LYTE kinase assay JAK1
T1 construct: 5 μl of catalytic domain recombinant Kinase enzyme+Tyr peptide substrate (Invitrogen, CA); purchased Invitrogen
Outline: (§1)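 Z′-LYTE FRET, Tyr6 peptide, recombinant catalytic domain + ATP, 1 h RT, 1% DMSO final, duplicates; protease development 1 h RT; fluorescence read.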

JAK2 = target: T2, JAK2 (Homo sapiens, UniProt O60674); test: Z'-LYTE kinase assay JAK2
T2 construct: 5 μl of catalytic domain recombinant Kinase enzyme+Tyr peptide substrate (Invitrogen, CA); purchased Invitrogen
T2 sequence (O60674 849-1124 limits assumed): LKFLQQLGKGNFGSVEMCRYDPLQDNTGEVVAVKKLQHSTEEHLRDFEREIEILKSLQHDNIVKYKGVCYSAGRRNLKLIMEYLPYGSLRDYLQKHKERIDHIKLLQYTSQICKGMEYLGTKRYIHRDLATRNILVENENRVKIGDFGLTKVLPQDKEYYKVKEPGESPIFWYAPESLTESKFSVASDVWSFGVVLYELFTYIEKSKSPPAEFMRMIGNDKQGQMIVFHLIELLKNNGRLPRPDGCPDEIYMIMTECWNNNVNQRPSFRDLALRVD
Outline: as §1

JAK3 = target: T3, JAK3 (Homo sapiens, UniProt P52333); test: Z'-LYTE kinase assay JAK3
T3 construct: 5 μl of catalytic domain recombinant Kinase enzyme+Tyr peptide substrate (Invitrogen, CA); purchased Invitrogen
T3 sequence (P52333 822-1111 limits assumed): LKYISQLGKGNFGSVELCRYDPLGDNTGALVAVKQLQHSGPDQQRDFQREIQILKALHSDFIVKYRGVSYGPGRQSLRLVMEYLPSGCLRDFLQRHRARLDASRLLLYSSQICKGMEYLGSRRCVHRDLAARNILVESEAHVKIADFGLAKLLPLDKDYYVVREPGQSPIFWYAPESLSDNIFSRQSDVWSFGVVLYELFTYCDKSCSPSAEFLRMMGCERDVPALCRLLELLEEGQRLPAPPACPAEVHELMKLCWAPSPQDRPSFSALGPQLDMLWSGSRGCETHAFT
Outline: as §1

T1 sequence (P23458 875-1153 limits assumed): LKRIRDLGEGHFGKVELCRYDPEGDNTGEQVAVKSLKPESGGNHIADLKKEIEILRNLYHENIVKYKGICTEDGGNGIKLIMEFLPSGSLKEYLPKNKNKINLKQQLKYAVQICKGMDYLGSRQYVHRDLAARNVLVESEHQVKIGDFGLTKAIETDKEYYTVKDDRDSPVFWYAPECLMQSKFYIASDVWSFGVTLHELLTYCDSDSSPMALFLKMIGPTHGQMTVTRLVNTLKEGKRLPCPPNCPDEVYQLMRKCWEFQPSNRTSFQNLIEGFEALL

Row | IC50 (JAK1) | IC50 (JAK2) | IC50 (JAK3) | Compound
1 | 100 to 1000 nM | 100 to 1000 nM | 1 to 10 nM | CN(C)C(=O)Cc1ccc(Nc2cc(NCc3ccccc3)c(C(N)=O)cn2)cc1 [Example 328, 4-(benzylamino)-6-(4-(2-(dimethylamino)-2-oxoethyl)phenylamino)nicotinamide]
2 | 10 to 100 nM | 10 to 100 nM | 1 to 10 nM | CCC(=O)N1CCC(c2ccc(Nc3cc(N[C@H](C)C(C)(C)C)c(C(N)=O)cn3)cc2)CC1 [Example 190, (R)-4-(3,3-dimethylbutan-2-ylamino)-6-(4-(1-propionylpiperidin-4-yl)phenylamino)nicotinamide]
3 | > 1000 nM | > 1000 nM | 100 to 1000 nM | CC(=O)N(C)c1ccc(Nc2cc(NC3(c4ccccc4)CC3)c(C(N)=O)cn2)cc1 [Example 361, 6-(4-(N-methylacetamido)phenylamino)-4-(1-phenylcyclopropylamino)nicotinamide]
4 | 100 to 1000 nM | 100 to 1000 nM | 10 to 100 nM | CC(=O)N1CCC[C@H](CNc2cc(Nc3ccc(NS(=O)(=O)N(C)C)cc3)ncc2C(N)=O)C1 [Example 269, (R)-4-((1-acetylpiperidin-3-yl)methylamino)-6-(4-(N,N-dimethylsulfamoylamino)phenylamino)nicotinamide]
5 | 100 to 1000 nM | 100 to 1000 nM | 10 to 100 nM | CN(C(=O)C1CC1)c1ccc(Nc2cc(NCc3cncc(F)c3)c(C(N)=O)cn2)cc1 [Example 481, 4-((5-fluoropyridin-3-yl)methylamino)-6-(4-(N-methylcyclopropanecarboxamido)phenylamino)nicotinamide]
6 | 10 to 100 nM | 10 to 100 nM | 1 to 10 nM | CC(=O)Nc1ccc(Nc2cc(NCc3cccc4ccsc34)c(C(N)=O)cn2)cc1 [Example 471, 6-(4-acetamidophenylamino)-4-(benzo[b]thiophen-7-ylmethylamino)nicotinamide]
7 | > 1000 nM | > 1000 nM | 100 to 1000 nM | COC(=O)N1CCC[C@@H](CNc2cc(Nc3ccc(OC)cc3)ncc2C(N)=O)C1 [Example 52, (S)-methyl 3-((5-carbamoyl-2-(4-methoxyphenylamino)pyridin-4-ylamino)methyl)piperidine-1-carboxylate]
8 | > 1000 nM | 100 to 1000 nM | 100 to 1000 nM | NC(=O)c1cnc(Nc2ccc(C3CCOCC3)cc2)cc1NCC1CCOCC1 [Example 140, 4-((tetrahydro-2H-pyran-4-yl)methylamino)-6-(4-(tetrahydro-2H-pyran-4-yl)phenylamino)nicotinamide]
9 | > 1000 nM | > 1000 nM | 100 to 1000 nM | CC(=O)Nc1cccc(Nc2cc(NC3(c4ccccc4)CC3)c(C(N)=O)cn2)c1 [Example 135, 6-(3-acetamidophenylamino)-4-(1-phenylcyclopropylamino)nicotinamide]
10 | > 1000 nM | > 1000 nM | 10 to 100 nM | CC(C)c1ccc(Nc2cc(NCc3ccccc3F)c(C(N)=O)cn2)cc1 [Example 158, 4-(2-fluorobenzylamino)-6-(4-isopropylphenylamino)nicotinamide]
11 | > 1000 nM | > 1000 nM | > 1000 nM | CCC(=O)N1CCC(Nc2cc(Nc3ccc(C4CCOCC4)cc3)ncc2C(N)=O)CC1 [Example 164, 4-(1-propionylpiperidin-4-ylamino)-6-(4-(tetrahydro-2H-pyran-4-yl)phenylamino)nicotinamide]
12 | 100 to 1000 nM | 100 to 1000 nM | 10 to 100 nM | N#CCOc1cccc(Nc2cc(NCc3ccccc3)c(C(N)=O)cn2)c1 [Example 383]
13 | > 1000 nM | > 1000 nM | 100 to 1000 nM | NC(=O)c1cnc(Nc2ccc(C3CCOCC3)cc2)cc1NC1CCCCC1 [Example 157, 4-(cyclohexylamino)-6-(4-(tetrahydro-2H-pyran-4-yl)phenylamino)nicotinamide]
14 | > 1000 nM | > 1000 nM | 100 to 1000 nM | C#CCNc1cc(Nc2ccc(C3CCOCC3)cc2)ncc1C(N)=O [Example 184, 4-(prop-2-ynylamino)-6-(4-(tetrahydro-2H-pyran-4-yl)phenylamino)nicotinamide]
15 | 100 to 1000 nM | 10 to 100 nM | 1 to 10 nM | NC(=O)c1cnc(Nc2cccc(C3CCOCC3)c2)cc1NCc1cccc(F)c1 [Example 204, 4-(3-fluorobenzylamino)-6-(3-(tetrahydro-2H-pyran-4-yl)phenylamino)nicotinamide]
16 | 1 to 10 nM | 1 to 10 nM | < 1 nM | CN(C)C(=O)C1CCN(c2ccc(Nc3cc(NCc4cccc5[nH]ccc45)c(C(N)=O)cn3)cc2)CC1 [Example 345, 4-((1H-indol-4-yl)methylamino)-6-(4-(4-(dimethylcarbamoyl)piperidin-1-yl)phenylamino)nicotinamide]
17 | > 1000 nM | > 1000 nM | 100 to 1000 nM | COc1ccc(Nc2cc(NCc3ccncn3)c(C(N)=O)cn2)cc1 [Example 298, 6-(4-methoxyphenylamino)-4-(pyrimidin-4-ylmethylamino)nicotinamide]

Row | IC50 (JAK1) | IC50 (JAK2) | IC50 (JAK3) | Compound
18 | > 1000 nM | > 1000 nM | 10 to 100 nM | NC(=O)c1cnc(Nc2ccc(C3CCN(S(=O)(=O)C4CC4)CC3)cc2)cc1NCc1ccccc1F [Example 113, 6-(4-(1-(cyclopropylsulfonyl)piperidin-4-yl)phenylamino)-4-(2-fluorobenzylamino)nicotinamide]
19 | > 1000 nM | > 1000 nM | 100 to 1000 nM | CC(C)c1cccc(Nc2cc(NCc3ccccc3F)c(C(N)=O)cn2)c1 [Example 162, 4-(2-fluorobenzylamino)-6-(3-isopropylphenylamino)nicotinamide]
20 | 100 to 1000 nM | 100 to 1000 nM | 1 to 10 nM | CN(C)C(=O)C1CN(c2ccc(Nc3cc(NCc4ccccc4)c(C(N)=O)cn3)cc2F)C1 [Example 342, 4-(benzylamino)-6-(4-(3-(dimethylcarbamoyl)azetidin-1-yl)-3-fluorophenylamino)nicotinamide]
21 | 100 to 1000 nM | 100 to 1000 nM | 100 to 1000 nM | CC(C)(C)CNc1cc(Nc2ccc(C3CCOCC3)cc2)ncc1C(N)=O [Example 155, 4-(neopentylamino)-6-(4-(tetrahydro-2H-pyran-4-yl)phenylamino)nicotinamide]
22 | > 1000 nM | > 1000 nM | > 1000 nM | NC(=O)c1cnc(Nc2ccc(C3CCOCC3)cc2)cc1NCc1ccncn1 [Example 181, 4-(pyrimidin-4-ylmethylamino)-6-(4-(tetrahydro-2H-pyran-4-yl)phenylamino)nicotinamide]
23 | > 1000 nM | 100 to 1000 nM | 10 to 100 nM | NC(=O)c1cnc(Nc2ccc(C3CCOCC3)cc2)cc1NCc1ccccc1F [Example 142, 4-(2-fluorobenzylamino)-6-(4-(tetrahydro-2H-pyran-4-yl)phenylamino)nicotinamide]
24 | 10 to 100 nM | 10 to 100 nM | < 1 nM | CS(=O)(=O)Cc1ccc(Nc2cc(NCc3cccc4ccsc34)c(C(N)=O)cn2)cc1 [Example 346, 4-(benzo[b]thiophen-7-ylmethylamino)-6-(4-(methylsulfonylmethyl)phenylamino)nicotinamide]
25 | 100 to 1000 nM | 10 to 100 nM | 1 to 10 nM | Cc1cc(Nc2cc(NCc3cccc(F)c3F)c(C(N)=O)cn2)ccc1C(=O)N1CCOCC1 [Example 455, 4-(2,3-difluorobenzylamino)-6-(3-methyl-4-(morpholine-4-carbonyl)phenylamino)nicotinamide]
26 | 100 to 1000 nM | 100 to 1000 nM | 1 to 10 nM | CN(C)C(=O)c1ccc(Nc2cc(NCc3cccc(-n4ccnc4)c3)c(C(N)=O)cn2)cc1 [Example 224, 4-(3-(1H-imidazol-1-yl)benzylamino)-6-(4-(dimethylcarbamoyl)phenylamino)nicotinamide]
27 | 100 to 1000 nM | 100 to 1000 nM | 10 to 100 nM | CC(=O)Nc1ccc(Nc2cc(NCc3cccc4cc[nH]c34)c(C(N)=O)cn2)cc1 [Example 473, 4-((1H-indol-7-yl)methylamino)-6-(4-acetamidophenylamino)nicotinamide]
28 | > 1000 nM | 100 to 1000 nM | 10 to 100 nM | CCC(=O)N1CCC(c2ccc(Nc3cc(NCc4ccccn4)c(C(N)=O)cn3)cc2)CC1 [Example 179, 6-(4-(1-propionylpiperidin-4-yl)phenylamino)-4-(pyridin-2-ylmethylamino)nicotinamide]
29 | 10 to 100 nM | 10 to 100 nM | 1 to 10 nM | CC(=O)N(C)c1ccc(Nc2cc(NCc3cccc4[nH]ccc34)c(C(N)=O)cn2)cc1 [Example 469, 4-((1H-indol-4-yl)methylamino)-6-(4-(N-methylacetamido)phenylamino)nicotinamide]
30 | > 1000 nM | 100 to 1000 nM | 10 to 100 nM | COc1ccc(Nc2cc(NC[C@H]3CCCN(S(C)(=O)=O)C3)c(C(N)=O)cn2)cc1 [Example 57, (R)-6-(4-methoxyphenylamino)-4-((1-(methylsulfonyl)piperidin-3-yl)methylamino)nicotinamide]
31 | 100 to 1000 nM | 100 to 1000 nM | 10 to 100 nM | NC(=O)c1cnc(Nc2ccc(C(=O)NCC(F)(F)F)cc2)cc1NCc1cncc(F)c1 [Example 313, 4-((5-fluoropyridin-3-yl)methylamino)-6-(4-(2,2,2-trifluoroethylcarbamoyl)phenylamino)nicotinamide]
32 | 100 to 1000 nM | 100 to 1000 nM | 10 to 100 nM | CN(C(=O)C1CC1)c1ccc(Nc2cc(NCc3cccc(F)n3)c(C(N)=O)cn2)cc1 [Example 489, 4-((6-fluoropyridin-2-yl)methylamino)-6-(4-(N-methylcyclopropanecarboxamido)phenylamino)nicotinamide]
33 | > 1000 nM | > 1000 nM | 10 to 100 nM | CS(=O)(=O)c1ccc(Nc2cc(NCc3cccc(-c4ccncc4)c3)c(C(N)=O)cn2)cc1 [Example 413, 6-(4-(methylsulfonyl)phenylamino)-4-(3-(pyridine-4-yl)benzylamino)nicotinamide]
